According to patent US20240246963A1, “BIFUNCTIONAL COMPOUNDS AND PHARMACEUTICAL USES THEREOF” (RISEN (SUZHOU) PHARMA TECH CO., LTD., priority 2022, published 2024):

Assays:
RAS G12D protein = target: T1, RAS G12D protein (Homo sapiens, UniProt P01116, G12D); test: Protein degradation study (western blot) in Aspc-1 cells; format: cell-based; details: for DC50: half-maximum degradation concentration on G12D in Aspc-1 cells; for percent protein degradation at 0.005 µM: 0.005 μM compound; for percent protein degradation at 0.05 µM: 0.05 μM compound; for Dmax: ASPC1
T1 construct: host or cells: Aspc-1 (AsPC-1) cells
T1 sequence (P01116 1-188 isoform P01116-2 G12D): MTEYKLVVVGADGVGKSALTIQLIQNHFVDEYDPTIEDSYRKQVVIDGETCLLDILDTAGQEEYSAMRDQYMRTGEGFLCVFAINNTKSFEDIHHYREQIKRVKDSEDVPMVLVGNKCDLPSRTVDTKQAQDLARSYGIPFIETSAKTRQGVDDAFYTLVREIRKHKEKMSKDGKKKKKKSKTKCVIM
Method: Aspc-1 (Cobioer, CBP60546) cells in exponential growth phase were inoculated on a 6-well cell culture plate (Corning, 3516) at density of 1E6/well; and cells in the plate were cultured in a 37° C. incubator containing 5%-carbon dioxide. The next day, test compounds were dissolved in DMSO (Sigma, RNBF5902) for the preparation of a 10-mM concentration stock solution. The stock solution was diluted with complete medium (RPMI-1640 supplemented with 10% fetal bovine serum, 1% penicillin-streptomycin), yielding working solutions of various concentrations. The plate, after the addition of compounds, was placed in a 5% carbon dioxide incubator, and incubated at 37° C. for 24 hours (final DMSO concentration was 0.1%). The plate was then removed from the incubator, and the cells were washed twice with precooled PBS (Gibco, 14190250), followed by addition of 80 μL RIPA (CST, 9806S) lysis buffer (containing protease inhibitor (Invitrogen™, AM2696)) to each well. The adherent cells were scraped off with a cell scraper, and the cell lysate was transferred to a 1.5 mL centrifuge tube followed with a 30-minute incubation on ice. The lysate was then clarified with centrifugation at 12000 rpm for 10 min at 4° C. The supernatant was transferred into a new 1.5 mL centrifuge tube, and protein concentration was measured with BCA protein detection kit (Thermo Fisher, 23225). G12D protein level was assessed by western blot. A mixture of cell lysate (40 μL) and loading buffer (10 μL, 5×SDS (Beyotime, P0015L)) was denatured in a water-bath at 95° C. for 10 min. The denatured protein sample, at 30 μg/well, was loaded into a corresponding well of a 4-20% Bis-Tris gel (Kingsley, M00656). Protein samples were initially electrophoresed at 80 V for 30 minutes, followed by 120 V for 40 minutes, until the bromophenol blue strip ran to an appropriate position. After electrophoresis, iBlot2 (Life Technologies, IB21001) was used to transfer the separated samples onto PVDF film. The PVDF membrane was washed with double-distilled water and then blocked in TBST (Thermo Scientific, 28360) buffer containing 5% non-fat milk, for 2 hours. Blocked membrane was rinsed with tris-buffered saline tween-2 (Thermo Scientific, 28360, TBST) three times, 10 minutes each. Membrane was then incubated with 1:1000 diluted RAS Gi2D primary antibody (CST, cat #14429S) overnight at 4° C. Membrane was rinsed in a way described previously followed by 1 hour incubation of secondary antibody at room temperature. After washing the film for three times with TBST, ECL color developing solution was applied, and image was captured with Biorad Chemi Doc gel imager. The band gray value was quantified (Image Lab), and protein degradation level was calculated according to the following formulas:
Level of RAS G12D protein expression=(RAS G12D−compound/β-Actin)−compound/(RAS G12D−DMSO/β-Actin−DMSO)
Level of degradation (%)=(1−Rate of RAS G12D protein expression)×100
Symbols of −, +, ++, +++, ++++, +++++ indicate that the degradation level of Ras protein induced by test compounds was 10% or less, 10 to 30%, 30 to 60%, 60 to 70%, 70 to 75%, and greater than 75%, respectively. “NT” indicates not tested.
“NT” indicates not tested.

NCI-H727 cells (G12V) = test: Cell proliferation study (Cell Titer Glo, 72 hours), NCI-H727; format: cell-based; details: Homo sapiens
Method: (§1) Aspc-1(Cobioer, CBP60546), GP2D(Cobioer, CBP60683), Mia paca2 (Cobioer, CBP60136), NCI-H358 (Cobioer, CBP60544), H727 (Cobioer, CBP60182), MKN-1 (Cobioer, CBP60486), and PSN1 (Cobioer, CBP61215) cells in exponential growth phase were seeded into a 96-well plate (Greiner, 655090) at density of 3E3/well. Cells were cultured overnight at 37° C. with 5% CO2. On the next day, cells were treated with compound at various concentrations for 72 hours in 37° C., 5% CO2 incubator (final DMSO concentration was 0.1%). After treatment, 100 μL Cell Tier Glo (Promega, G7573) were added to every well on the cell plate and incubated at room temperature (RT) for 10 minutes. Cell growth status was measured with Cell Tier Glo (Promega, G7573) following manufacturer's directions. Inhibition level was calculated according to the following formula: […]
(§2) where the “Maximum Signal” are signal of wells containing DMSO without compound; the “Minimum Signal” are signal of wells recorded at Day 0 prior to commencement of the experiment; and the “Test compound signal” are signal of wells containing compound at established concentrations.
(§3) The inhibition curve was obtained with GraphPad 7.0 software using four-parameter equation.

GP2D cells (G12D) = test: Cell proliferation study (Cell Titer Glo, 72 hours), GP2D; format: cell-based
Method: as §1, §2, §3

AsPc-1 cells (G12D) = test: Cell proliferation study (Cell Titer Glo, 72 hours), AsPc-1; format: cell-based; details: Homo sapiens, ASPC1
Method: as §1, §2, §3

PSN-1 cells (G12R) = test: Cell proliferation study (Cell Titer Glo, 72 hours), PSN-1; format: cell-based; details: Homo sapiens, PSN1
Method: as §1, §2, §3

MKN1 cells (WT) = test: Cell proliferation study (Cell Titer Glo, 72 hours), MKN1; format: cell-based; details: Homo sapiens, MKN-1
Method: as §1, §2, §3

NCI-H358 cells (G12C) = test: Cell proliferation study (Cell Titer Glo, 72 hours), NCI-H358; format: cell-based; details: Homo sapiens
Method: as §1, §2, §3

[1] = Pharmacokinetics in male ICR mice; format: in vivo; details: mouse, plasma, IV (3 mg/kg)
[2] = ASPC1, 24 h, Aspc-1 cells, 24 hours, read-out: Rate of protein degradation (%)

Row | SMILES | percent protein degradation at 0.01 µM (RAS G12D protein; ASPC1, 24 h, 0.010 μM compound, Aspc-1 cells, 24 hours, read-out: Rate of protein degradation (%)) [%] | percent protein degradation at 0.1 µM (RAS G12D protein; ASPC1, 24 h, 0.1 μM compound, Aspc-1 cells, 24 hours, read-out: Rate of protein degradation (%)) [%] | DC50 (RAS G12D protein) [nM] | IC50 (NCI-H727 cells (G12V)) [nM] | IC50 (GP2D cells (G12D)) [nM] | IC50 (AsPc-1 cells (G12D)) [nM] | IC50 (PSN-1 cells (G12R)) [nM] | IC50 (MKN1 cells (WT)) [nM] | percent protein degradation at 0.001 µM (RAS G12D protein; ASPC1, 24 h, 1 nM compound, Aspc-1 cells, 24 hours, read-out: Rate of protein degradation (%)) [%] | percent protein degradation at 0.005 µM (RAS G12D protein; [2]) [%] | percent protein degradation at 0.05 µM (RAS G12D protein; [2]) [%] | Dmax (RAS G12D protein; G12D in Aspc-1 cells) [%] | IC50 (NCI-H358 cells (G12C)) [nM] | AUC(0-t) [1] [ng·h/mL] | half-life [1] [h] | DC50 ranking among test compounds (RAS G12D protein; G12D in Aspc-1 cells)
1 | CCc1c(F)ccc2cc(O)cc(-c3ncc4c(N5CCC[C@@](C)(O)C5)nc(OCC5(CN6CCC(C(=O)N7CCC8(CC7)CC(N7CCC(c9ccc%10c(C%11CCC(=O)NC%11=O)nn(C)c%10c9)CC7)C8)CC6)CC5)nc4c3F)c12 (stereo partly shown) [Compound 85] | 60 to 70 | 60 to 70 | 1 to 10 | 2.46 | 242 | 488 | 488 | 405 |  |  |  |  |  |  |  | 
2 | CCc1c(F)ccc2cc(O)cc(-c3ncc4c(N5CCC[C@@](C)(O)C5)nc(OCC5(CN6CCC7(CC6)CC(N6CCC(c8ccc9c(c8)CN(C8CCC(=O)NC8=O)C9=O)CC6)C7)CC5)nc4c3F)c12 (stereo partly shown) [Compound 130] |  |  | < 1 | 4.45 | 0.219 | 12.4 |  |  | 70 to 75 | 70 to 75 | 30 to 60 | 73 | 64.8 |  |  | 
3 | CCc1c(F)ccc2cc(O)cc(-c3ncc4c(N5CCC[C@@](C)(O)C5)nc(OCC5(CN6CCC7(CC6)CC(N6CCC(c8ccc9c%10c(cccc8%10)C(=O)N9C8CCC(=O)NC8=O)CC6)C7)CC5)nc4c3F)c12 (stereo partly shown) [Compound 137] |  |  | < 1 | 0.46 |  | 65.6 |  |  |  |  |  | 62 | 438 | 1280 | 7.97 | 
4 | CCc1c(F)ccc2cc(O)cc(-c3ncc4c(N5CCC[C@]6(CCO6)C5)nc(OCC5(CN6CCC7(CC6)CC(N6CCC(c8ccc9c%10c(cccc8%10)C(=O)N9C8CCC(=O)NC8=O)CC6)C7)CC5)nc4c3F)c12 (stereo partly shown) [Compound 179a] |  |  | < 1 | 18.5 | 0.123 | 57.8 |  |  |  | > 75 | > 75 | 70 | 126 |  |  | lowest DC50 value
5 | C[C@@]1(O)CCCN(c2nc(OCC3(CN4CCC5(CC4)CC(N4CCC(c6ccc7c8c(cccc68)C(=O)N7C6CCC(=O)NC6=O)CC4)C5)CC3)nc3c(F)c(-c4cc(N)cc(Cl)c4C(F)(F)F)ncc23)C1 (stereo partly shown) [Compound 200] |  |  |  | 45.8 | 0.991 | > 1000 |  |  |  | 70 to 75 | > 75 |  | > 1000 |  |  | 
6 | CCc1c(F)ccc2cc(O)cc(-c3ncc4c(N5CCC[C@]6(CCO6)C5)nc(OCC5(CN6CCC7(CC6)CC(N6CCC(c8ccc9c(C%10CCC(=O)NC%10=O)nn(C)c9c8)CC6)C7)CC5)nc4c3F)c12 (stereo partly shown) [Compound 201] |  |  | < 1 | 2.09 | 0.256 | 4.98 |  |  |  | > 75 | > 75 | 80 | 9.92 |  |  | 
7 | CCc1c(F)ccc2cc(O)cc(-c3ncc4c(N5CCC[C@]6(CCO6)C5)nc(OCC5(CN6CCC7(CC6)CC(N6CCC(c8cc9c(cc8F)c(C8CCC(=O)NC8=O)nn9C)CC6)C7)CC5)nc4c3F)c12 (stereo partly shown) [Compound 205] |  |  | < 1 | 0.309 | 0.289 | 2.32 |  |  |  | 60 to 70 | > 75 | 78 | 6.24 |  |  | 
